Laboratory results published in patent US10201558B2, “Compositions of selenoorganic compounds and methods of use thereof” (Alltech, Inc., priority 2014, dated 2019).
“Also recorded” adds a separate entry of the source.

Experiments:
Format in all cases: cell-based, human
PGC-1α = assay: Western blot of PGC-1α protein in IMR-32 cells; conditions: 150 ppb, 24 hours
Experimental: (§1) IMR-32 cells were seeded on 6-well plates and then treated with control and various compounds for 6 hours and 24 hours, as described above. After treatments, cells were rinsed with ice-cold PBS and lysed in ice-cold RIPA buffer containing complete proteinase and phosphatase inhibitors (Thermo-Fisher Scientific, Waltham, Mass.) on ice for 30 min Cell lysates were collected using a cell scraper and transfer pipette and then centrifuged at 12000×g for 30 min at 4° C. to remove the DNA pellet and obtain the protein extract. Protein levels in the supernatant of these cell lysates were determined using the Pierce Micro-BCA protein assay kit (Thermo Scientific-Piece Biotechnology, Rockford, Ill.) according to the manufacturer's protocol […]
(§2) Positive signals on the membrane blots were detected using Amersham's enhanced chemiluminescence (ECL) Western Blotting Prime Detection reagents (GE healthcare Lifescience, Pittsburgh, Pa.). Images of these luminescence signals on the membrane blots were captured using the LI-COR Odyssey Fc Image system (Lincoln, Nebr.). […] Protein band densities in the Western blots were determined using the Li—COR Image studio software or NIH ImageJ software, and then normalized by ACTB protein level in each sample. […]

UCP3 = assay: QRT-PCR of UCP3 mRNA in IMR-32 cells; conditions: 150 ppb, 6 hours
Experimental: (§3) Human IMR-32 cells were seeded on gelatinized 6-well (6.5×10^5 cells/well) or 24-well (1.3×10^5 cells/well) plates. Cells were treated with control (0 ppb) or various compounds for 6 hours or 24 hours. Total RNA from these cells was isolated using Trizol (Invitrogen) according to the manufacturer's protocol, and then incubated with DNase I to remove any potential contaminated genomic DNA. Then RNA samples were subjected to real-time PCR analysis using the Applied-Bioscience's RT kit and predesigned Taqman probes (Invitrogen), as described previously (Lan et al EMBO J 2003). The mRNA levels of UCP1, UCP2, UCP3, SLC25A27 (UCP4), SLC25A14 (UCP5), PSEN1, Nicastrin, GSK3B, MAPK11-14, PPARG, APOE, RCAN1, RCAN1.1, G6PC, INSR, IGF1R and FOXO4 were measured. Three to six samples were analyzed in each treatment group. Data were normalized by Actin B (ACTB) or Glyceraldehyde Phosphate Dehydrogenase (GAPDH) mRNA levels in each sample and are presented as mean±SEM of 3-6 samples.

NICASTRIN [1] = assay: Western blot of NICASTRIN protein in IMR-32 cells; conditions: 150 ppb, 24 hours
Experimental: as §1, §2

NICASTRIN [2] = assay: QRT-PCR of NICASTRIN mRNA in IMR-32 cells (normal, control KD, FOXO4 KD)
Experimental: (§4) IMR-32 cells were cultured on 12-well plates for 24 hours and then incubated with FOXO4 siRNA lentiviruses (SC-29650V, Santa Cruz) or control siRNA lentiviruses (sc-108080, Santa Cruz) in the presence of Polybrene (5 μg/ml, Santa Cruz) for 24 hours according to the manufacturer's protocol. These lentiviral siRNA-transfected cells were amplified in normal media for 3 days and then incubated with puromycin for 9-14 days to obtain the stable Control KD (stably transfected with the control siRNAs) and FOXO4KD (stably transfected with Foxo4 siRNAs) cells. These control and Foxo4 KD cells were subjected to cell survival, mitochondrial potential and RNA analysis.
as §3
RNA samples were extracted, purified, and subjected to real-time PCR analysis using Applied-Bioscience's RT kit and Taqman probes (Invitrogen) as described previously in Example 4. Protein samples were also prepared from cell lysates and western blot analysis was performed as previously described in Example 4. Data are presented as mean±SEM of 3 protein samples and 4 RNA samples per group. The relative mRNA and protein expression levels of PSEN1 and NICASTRIN, were measured. All primary antibodies were purchased from Cell Signaling Inc., Beverly, Mass.
(§5) Expression of genes such as Nicastrin and GSK3B (FIGS. 3A, 3C, 3G-3I, 4A, 4F-4H) which are associated with early-onset AD pathogenesis was attenuated by Compound C. […] Therefore, GSK3B and Nicastrin likely are two direct downstream target genes of FOXO4 in neuronal cells in humans.

[3] = test system: phosphorylated Tau (pTau S396, pTau S400/T403/S404); assay: Western blot of phosphorylated Tau in IMR-32 cells; conditions: 150 ppb, 24 hours
Experimental: IMR-32 cells were seeded on 6-well plates and then treated with control and various compounds for 6 hours and 24 hours, as described above. After treatments, cells were rinsed with ice-cold PBS and lysed in ice-cold RIPA buffer containing complete proteinase and phosphatase inhibitors (Thermo-Fisher Scientific, Waltham, Mass.) on ice for 30 min Cell lysates were collected using a cell scraper and transfer pipette and then centrifuged at 12000×g for 30 min at 4° C. to remove the DNA pellet and obtain the protein extract. Protein levels in the supernatant of these cell lysates were determined using the Pierce Micro-BCA protein assay kit (Thermo Scientific-Piece Biotechnology, Rockford, Ill.) according to the manufacturer's protocol
For Western blot analysis, five micrograms of total proteins from control (0 ppb)- and compound(s)-treated cells were subjected to SDS-PAGE gel separation and then transferred to PVDF membranes, as described previously (Reddy, Liu et al. 2008 Science). Membranes were blocked in a phosphate-buffered saline (PBS) containing 5% (w/v) of bovine serum albumin (Sigma, St. Louis, Mo.) and incubated with specific primary antibodies followed by the incubation with HRP-conjugated anti-mouse or anti-rabbit secondary antibodies (1:5000 dilution, Cell Signaling Inc.). All primary antibodies except PGC1a (Abcam, Cambridge, Mass.), G6pc (Santa Cruz, Dallas, Tex.) and Actb (Li-Cor, Lincoln, Nebr.) were purchased from Cell Signaling Inc., Beverly, Mass.
Positive signals on the membrane blots were detected using Amersham's enhanced chemiluminescence (ECL) Western Blotting Prime Detection reagents (GE healthcare Lifescience, Pittsburgh, Pa.). Images of these luminescence signals on the membrane blots were captured using the LI-COR Odyssey Fc Image system (Lincoln, Nebr.). The same membrane blot was stripped and re-blotted with another antibody as described in the GE WB ECL-prime-detection protocol (GE Healthcare Lifescience, Pittsburgh, Pa.). Protein band densities in the Western blots were determined using the Li—COR Image studio software or NIH ImageJ software, and then normalized by ACTB protein level in each sample. Data are presented as mean±SEM of three samples per each group.
To determine whether selenium Compound C, Compound D or Compound E can potentially contribute to diminished tangle formation in AD, the phosphorylation of two AD biomarkers, pTau S396 (Serine 396) and pTauS400/T403/5404 (Serine 400, Threonine 403, and Serine 404), as well as the Total Tau protein levels was assessed in IMR-32 cells. Phosphorylation of Tau at the indicated amino acid sites has been associated with destabilization of the Tau protein and the eventual formation of tangles. For this purpose, cells were treated with 150 ppb of Compound C, Compound D, or Compound E for 6 hours and 24 hours, and then subjected to Western blot analysis (see FIG. 4A). Mean±SEM, n=3.

Total Tau = assay: Western blot of Total Tau protein in IMR-32 cells; conditions: 150 ppb, 24 hours
Experimental: as §1, §2

GSK3B [4] = assay: Western blot of total GSK3B protein in IMR-32 cells; conditions: 150 ppb, 24 hours
Experimental: as §1, §2

GSK3B [5] = assay: QRT-PCR of GSK3B mRNA in IMR-32 cells (normal, control KD, FOXO4 KD); conditions: for GSK3B mRNA levels: IMR-32 cells
Experimental: as §4, §3, §5

[6] = FOXO4KD cells, 75 ppb and 150 ppb, 24 hours
[7] = control KD cells, 75 ppb and 150 ppb, 24 hours

SMILES | PGC-1α protein levels (normalized by ACTB) (PGC-1α) | UCP3 mRNA expression (UCP3) | NICASTRIN protein levels (NICASTRIN [1]) | NICASTRIN mRNA expression (NICASTRIN [2]; IMR-32 cells, 24 hours) | phosphorylation of Tau at 5400/T403/5404 [3] | phosphorylation of Tau at S396 [3] | ratio of total pTau at both S396 and S400/T403/S404 to total Tau proteins [3] | total Tau protein level (Total Tau) | total GSK3B protein levels (GSK3B [4]) | GSK3B mRNA levels (GSK3B [5]; 150 ppb, 6 hours) | NICASTRIN mRNA expression (NICASTRIN [2]; [6]) | NICASTRIN mRNA expression, dose-response study (NICASTRIN [2]; IMR-32 cells, 150 ppb, 24 hours) | NICASTRIN mRNA expression (NICASTRIN [2]; IMR-32 cells, 6 hours) | NICASTRIN mRNA expression (NICASTRIN [2]; [7]) | GSK3B mRNA expression (GSK3B [5]; [6]) | GSK3B mRNA levels (GSK3B [5]; 75 ppb and 150 ppb, 24 hours) | GSK3B mRNA expression (GSK3B [5]; [7])
C[Se]C[C@H](NC(=O)CC[C@H](N)C(=O)O)C(=O)O [Compound E, γ-L-glutamyl-Se-methyl-L-selenocysteine] | increase | did not have any effect | trend towards reduced | stimulated | significantly down-regulated | significantly down-regulated | trend towards reduced | significantly down-regulated | not observed; also recorded: no significant difference | did not significantly inhibit |  |  |  |  |  |  | 
C[Se]C[C@H]1O[C@@H](n2cnc3c(N)ncnc32)C(O)C1O (stereo in doubt) [Compound C, 5′-deoxy-5′-methylselenoadenosine] | increase; also recorded: elevated | significant decrease; also recorded: inhibited | significant reduction | significant decrease | significantly inhibited | not at S396 | significantly attenuated | did not affect | visibly decreased; also recorded: statistically significant decrease | significantly decreased | not significantly altered | significantly inhibit | trend towards reduced | inhibited | not in FOXO4KD cells | significantly downregulated | attenuated
